Reference: paper PMC2741501 (Molecular cell, 2009)
Like-named read-outs stand apart in the source and are kept apart here.

Columns and labels:
[1] = test system: CviR binding to the vioA promoter; set-up: species or system Chromobacterium violaceum; conditions: for DNA binding of purified CviR loaded with the molecule: vioA promoter probe, CviR 100-500 nM
V. harveyi LuxN = V. harveyi LuxN (Vibrio campbellii, UniProt A7MRY4); format: cell-based; conditions: read-out: IC50, inhibition of bioluminescence
[2] = test system: C. violaceum killing of C. elegans; test: C. elegans lifespan assay on C. violaceum lawns; format: in vivo, Caenorhabditis elegans
CviR [3] = conditions: molecule added at 50 μM, E. coli
CviR [4] = target: T1, CviR (Chromobacterium violaceum, UniProt D3W065); format: cell-based; conditions: read-out: IC50, inhibition of CviR-dependent vioA-gfp expression; constant 500 nM C6-HSL
CviR [5] = target: T1, CviR; conditions: for maximal gfp expression level compared with C6-HSL / EC50: E. coli vioA-gfp; for EC50: read-out: EC50, CviR activation of gfp expression; for induction of gfp expression through CviR: even at 100 μM
[6] = V. harveyi BB960 (luxPQ mutant)

V. harveyi LuxN, sequence (A7MRY4 whole entry): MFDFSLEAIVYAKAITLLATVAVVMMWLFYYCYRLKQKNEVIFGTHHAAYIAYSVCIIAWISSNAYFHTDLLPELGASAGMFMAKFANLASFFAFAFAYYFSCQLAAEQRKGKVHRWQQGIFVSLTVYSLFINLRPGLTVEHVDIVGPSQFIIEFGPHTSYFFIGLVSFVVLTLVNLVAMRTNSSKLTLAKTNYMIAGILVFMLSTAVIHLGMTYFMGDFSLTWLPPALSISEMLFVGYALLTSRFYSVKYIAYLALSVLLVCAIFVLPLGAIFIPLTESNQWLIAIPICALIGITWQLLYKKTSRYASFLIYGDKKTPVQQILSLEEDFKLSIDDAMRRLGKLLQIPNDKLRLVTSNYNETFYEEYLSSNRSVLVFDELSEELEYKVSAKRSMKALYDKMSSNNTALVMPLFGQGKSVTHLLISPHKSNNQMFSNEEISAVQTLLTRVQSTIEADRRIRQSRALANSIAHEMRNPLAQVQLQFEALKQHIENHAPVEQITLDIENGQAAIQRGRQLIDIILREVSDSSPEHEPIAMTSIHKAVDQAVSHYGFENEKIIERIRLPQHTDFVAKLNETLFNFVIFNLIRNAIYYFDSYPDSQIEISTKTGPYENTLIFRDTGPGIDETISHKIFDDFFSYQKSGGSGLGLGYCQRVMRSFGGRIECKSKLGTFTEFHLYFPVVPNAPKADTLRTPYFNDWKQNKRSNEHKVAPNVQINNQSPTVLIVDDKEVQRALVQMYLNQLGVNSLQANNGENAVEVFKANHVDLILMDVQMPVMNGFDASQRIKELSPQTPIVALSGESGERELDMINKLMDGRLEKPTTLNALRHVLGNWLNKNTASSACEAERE
T1 sequence (D3W065 1-265): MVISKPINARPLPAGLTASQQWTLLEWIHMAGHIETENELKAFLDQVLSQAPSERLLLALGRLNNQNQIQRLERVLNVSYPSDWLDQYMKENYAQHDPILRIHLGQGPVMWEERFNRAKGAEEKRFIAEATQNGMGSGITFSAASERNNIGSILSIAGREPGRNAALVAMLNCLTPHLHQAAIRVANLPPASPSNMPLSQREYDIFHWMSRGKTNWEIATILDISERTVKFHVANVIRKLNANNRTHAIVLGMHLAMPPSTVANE

Compound	DNA binding of purified CviR loaded with the molecule [1]	IC50 (CviR [4]) [nM]	EC50 (CviR [5]) [nM]	induction of gfp expression through CviR (CviR [5])	also measured
Chlorolactone [CL]	no ability to bind DNA	377	–	–	DNA binding of C6-HSL loaded CviR on addition of antagonist ([1]; 500 nM CviR, antagonist 0-10 μM): DNA binding decreased in a dose dependent manner; IC50 (V. harveyi LuxN; [6]): 14000 nM; IC50 (V. harveyi LuxN; V. harveyi JMH624 + 20 nM AHL): 873 nM; IC50 (V. harveyi LuxN; wild type V. harveyi BB120): 40000 nM; C. elegans median lifespan ([2]; wild type C. violaceum, CL 20 μM, two days without antagonist): seven; CviR folding and solubility when expressed in presence of molecule (CviR [3]): promoted CviR folding and solubility
CCCC(=O)N[C@H]1CCOC1=O [C4-HSL]	–	–	12000	–	maximal gfp expression level compared with C6-HSL (CviR [5]): can induce maximal gfp expression
Chloro-thiolactone [CTL]	no ability to bind DNA	1100	–	–	IC50 (V. harveyi LuxN; [6]): 28000 nM; IC50 (V. harveyi LuxN; wild type V. harveyi BB120): 150000 nM; CviR folding and solubility when expressed in presence of molecule (CviR [3]): promoted CviR folding and solubility
CCCCCCCC(=O)N[C@H]1CCOC1=O [C8-HSL]	bound DNA with similar affinity to CviR loaded with C6-HSL	–	30	–	maximal gfp expression level compared with C6-HSL (CviR [5]): only half of the maximal gfp expression
CCCCCCCCCC(=O)N[C@H]1CCOC1=O [C10-HSL]	does not abolish DNA binding	208	–	do not induce gfp expression	–
CCCCCCCCCCCCCC(=O)N[C@H]1CCOC1=O [C14-HSL]	no ability to bind DNA	268	–	do not induce gfp expression	–
CCCCCCCCCCCC(=O)N[C@H]1CCOC1=O [C12-HSL]	no ability to bind DNA	494	–	do not induce gfp expression	–
CCCCCC(=O)N[C@H]1CCOC1=O [C6-HSL]	binds DNA with high affinity	–	75	–	DNA probe shift of CL loaded CviR on addition of C6-HSL ([1]; 500 nM CviR, 1 μM C6-HSL): modest shift of the DNA probe; C. elegans median lifespan ([2]; C. violaceum cviI mutant, C6-HSL 2 μM): 4 days
